The values below come from US9630922B2, “3-spiro-7-hydroxamic acid tetralins as HDAC inhibitors” (Forma Therapeutics, Inc., priority 2015, dated 2017).

For the assay, the target named is T1, HDAC6 (Homo sapiens, UniProt Q9UBN7).
T1 construct: Full length human recombinant HDAC6 protein was expressed in baculoviral system; made in house; host or cells: baculoviral system
T1 sequence (Q9UBN7 1-1215): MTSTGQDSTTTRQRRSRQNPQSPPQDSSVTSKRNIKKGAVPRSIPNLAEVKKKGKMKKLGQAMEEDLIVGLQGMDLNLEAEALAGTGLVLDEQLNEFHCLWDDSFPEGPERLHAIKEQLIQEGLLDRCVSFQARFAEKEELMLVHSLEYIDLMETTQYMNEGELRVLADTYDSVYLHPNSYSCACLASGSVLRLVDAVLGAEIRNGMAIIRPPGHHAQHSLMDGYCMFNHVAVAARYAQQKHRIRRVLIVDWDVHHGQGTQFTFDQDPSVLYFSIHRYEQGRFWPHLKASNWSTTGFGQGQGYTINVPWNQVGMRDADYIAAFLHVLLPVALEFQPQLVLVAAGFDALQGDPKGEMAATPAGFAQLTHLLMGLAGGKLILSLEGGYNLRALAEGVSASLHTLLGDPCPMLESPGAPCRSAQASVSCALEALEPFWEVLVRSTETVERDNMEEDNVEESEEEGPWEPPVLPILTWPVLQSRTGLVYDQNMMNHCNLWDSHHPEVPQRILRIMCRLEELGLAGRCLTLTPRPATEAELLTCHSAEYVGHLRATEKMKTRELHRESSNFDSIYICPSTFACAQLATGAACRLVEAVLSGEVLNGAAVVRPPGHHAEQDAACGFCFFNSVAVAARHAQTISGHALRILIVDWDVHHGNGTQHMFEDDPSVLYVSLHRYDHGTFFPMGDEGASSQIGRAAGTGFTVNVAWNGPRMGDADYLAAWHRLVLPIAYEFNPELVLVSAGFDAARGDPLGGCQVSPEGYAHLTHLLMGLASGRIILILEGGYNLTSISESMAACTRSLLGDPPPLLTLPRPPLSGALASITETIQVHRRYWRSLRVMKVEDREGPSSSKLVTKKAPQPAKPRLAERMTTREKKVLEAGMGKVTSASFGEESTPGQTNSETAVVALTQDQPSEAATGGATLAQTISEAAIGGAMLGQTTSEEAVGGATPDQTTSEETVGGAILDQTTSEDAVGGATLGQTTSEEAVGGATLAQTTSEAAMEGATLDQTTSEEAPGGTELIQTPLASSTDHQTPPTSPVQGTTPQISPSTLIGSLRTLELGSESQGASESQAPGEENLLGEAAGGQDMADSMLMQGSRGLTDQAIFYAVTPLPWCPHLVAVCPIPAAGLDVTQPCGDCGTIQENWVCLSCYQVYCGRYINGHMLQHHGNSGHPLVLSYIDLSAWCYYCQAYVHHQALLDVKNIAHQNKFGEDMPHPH
The assay is described as follows: In vitro Histone Deacetylase Assay (enzymatic HDAC6 electrophoretic mobility shift assay). The class given is biochemical. As to conditions: full length human recombinant HDAC6, 1 nM enzyme, 2 μM peptide substrate RHKK(Ac)-NH2, 25° C.; read-out: HDAC6 activity range. The procedure, abridged:
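Full-length recombinant human HDAC6 (baculovirus-expressed, 1 nM) was incubated at 25 °C with 2 μM fluorescent RHKK(Ac)-NH2 peptide in HEPES pH 7.5, KCl, BSA, Triton X-100 and 1% DMSO, then SDS-quenched. Substrate and product were separated by microfluidic mobility shift, and IC50 came from 4-parameter fits of 12-point, 3-fold dilution curves.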
Consider `O=C(NO)c1ccc2c(c1)CC[C@]1(CCN(Cc3cnc(O)s3)C1=O)C2` [Compound I-31, (R)-N-hydroxy-1′-((2-hydroxythiazol-5-yl)methyl)-2′-oxo-3,4-dihydro-1H-spiro[naphthalene-2,3′-pyrrolidine]-6-carboxamide], for which the IC50 was not above 0.1 µM.

With `CS(=O)(=O)c1ccc(CN2CC[C@]3(CCc4cc(C(=O)NO)ccc4C3)C2=O)cc1` [Compound I-88, (R)-N-hydroxy-1′-(4-(methylsulfonyl)benzyl)-2′-oxo-3,4-dihydro-1H-spiro[naphthalene-2,3′-pyrrolidine]-6-carboxamide], the IC50 is not above 0.1 µM. Regarding `COc1cc(N2CC[C@]3(CCc4cc(C(=O)NO)ccc4C3)C2=O)ccn1` [Compound I-149, (R)-N-hydroxy-1′-(2-methoxypyridin-4-yl)-2′-oxo-3,4-dihydro-1H-spiro[naphthalene-2,3′-pyrrolidine]-6-carboxamide], the IC50 was not above 0.1 µM. Next, `CCN1CCCC2(CCc3cc(C(=O)NO)ccc3C2)C1=O` (single isomer, unassigned) [Compound I-184]: not above 0.1 µM; `N#Cc1cccc(N2CC[C@@]3(CCc4cc(C(=O)NO)ccc4C3)C2=O)c1` [Compound I-116, (S)-1′-(3-cyanophenyl)-N-hydroxy-2′-oxo-3,4-dihydro-1H-spiro[naphthalene-2,3′-pyrrolidine]-6-carboxamide]: not above 0.1 µM. Next, `O=C(NO)c1ccc2c(c1)CC[C@@]1(CCN(Cc3c(Cl)cccc3Cl)C1=O)C2` [Compound I-75, (S)-1′-(2,6-dichlorobenzyl)-N-hydroxy-2′-oxo-3,4-dihydro-1H-spiro[naphthalene-2,3′-pyrrolidine]-6-carboxamide]: 0.1 to 0.5 µM; `N#Cc1ccccc1N1CC[C@@]2(CCc3cc(C(=O)NO)ccc3C2)C1=O` [Compound I-174, (S)-1′-(2-cyanophenyl)-N-hydroxy-2′-oxo-3,4-dihydro-1H-spiro[naphthalene-2,3′-pyrrolidine]-6-carboxamide]: not above 0.1 µM; `O=C(NO)c1ccc2c(c1)CCC1(CCNC1=O)O2` (centres unmarked) [Compound I-236, N-hydroxy-2′-oxospiro[chromane-2,3′-pyrrolidine]-6-carboxamide]: 0.1 to 0.5 µM. Next, `CC(C)N1CC2(CCc3cc(C(=O)NO)ccc3C2)CC1=O` (single isomer, unassigned) [Compound I-208]: not above 0.1 µM.

As for `O=C(NO)c1ccc2c(c1)CC[C@]1(CCN(c3cccnc3)C1=O)C2` [Compound I-10, (R)-N-hydroxy-2′-oxo-1′-(pyridin-3-yl)-3,4-dihydro-1H-spiro[naphthalene-2,3′-pyrrolidine]-6-carboxamide], the IC50 was not above 0.1 µM. Regarding `COc1cccc(N2CC[C@@]3(CCc4cc(C(=O)NO)ccc4C3)C2=O)c1` [Compound I-158, (S)-N-hydroxy-1′-(3-methoxyphenyl)-2′-oxo-3,4-dihydro-1H-spiro[naphthalene-2,3′-pyrrolidine]-6-carboxamide], the IC50 was not above 0.1 µM.

Regarding `CN(C)c1ccc(N2CC[C@]3(CCc4cc(C(=O)NO)ccc4C3)C2=O)cc1` [Compound I-93, (R)-1′-(4-(dimethylamino)phenyl)-N-hydroxy-2′-oxo-3,4-dihydro-1H-spiro[naphthalene-2,3′-pyrrolidine]-6-carboxamide], the IC50 was not above 0.1 µM. Next, `COc1ccncc1N1CC[C@@]2(CCc3cc(C(=O)NO)ccc3C2)C1=O` [Compound I-142, (S)-N-hydroxy-1′-(4-methoxypyridin-3-yl)-2′-oxo-3,4-dihydro-1H-spiro[naphthalene-2,3′-pyrrolidine]-6-carboxamide]: not above 0.1 µM; `COc1ccc(N2CC[C@]3(CCc4cc(C(=O)NO)ccc4C3)C2=O)cn1` [Compound I-114, (R)-N-hydroxy-1′-(6-methoxypyridin-3-yl)-2′-oxo-3,4-dihydro-1H-spiro[naphthalene-2,3′-pyrrolidine]-6-carboxamide]: not above 0.1 µM.
